US11850237B2, “Compounds and methods for treating influenza” (priority 2009, dated 2023)
≈ marks a conversion by molar mass, not a printed value. Where two headings read alike, the source gives them in different places.

Columns and labels:
H1N1 A/PR/8/34 (PR8) = experiment: microbe, parasite or virus in culture; type: cell-based, influenza A virus
[1] = Toxicity / cell viability by MTT in uninfected MDCK cells; type: cell-based, canine; settings: dog, uninfected MDCK cells; uninfected cells
Description: (§1) Cell culture, treatment and transfection-Madin-Darby canine kidney (MDCK) cells, and human A549 alveolar type II-like epithelial, Jurkat Tlymphoblastoid and U397 monocytic leukemia cells were grown at 37° C. in a 5% CO2 atmosphere in RPMI 1640 (Invitrogen), supplemented with 10% fetal calf serum (FCS), 2 mM glutamine and antibiotics. Test compounds were added immediately after 1-hour adsorption period, and kept in the culture medium for the entire time of the experiment, unless differently specified. […] Cell viability was determined by the 3-(4,5-dimethylthiazol-2-yl)-2,5-diphenyltetrazolium bromide (MTT) to MTT formazan conversion assay (Sigma-Aldrich) as described previously. Microscopical examination of mock-infected or virus-infected cells was performed using a Leica DM-IL microscope and images were captured on a Leica DC 300 camera using Leica Image-Manager500 software.

MDCK cells [2] = experiment: as above; type: cell-based, canine; settings: MDCK cells, MTT
Description: as §1

A/WSN/33 (WSN) = experiment: microbe, parasite or virus in culture; type: cell-based; settings: Influenza A virus, MDCK, 24 h, read-out: EC50, inhibition of virus replication
[3] = tested on: H5N9 low-pathogenicity avian strain A/Ck/It/9097/97 (A/Ck); experiment: microbe, parasite or virus in culture; type: cell-based; settings: Influenza A virus, H5N9, MDCK, 24 h, read-out: EC50, inhibition of virus replication
[4] = tested on: influenza A virus (PR8 in U937 and Jurkat, WSN in A549 cells); experiment: Influenza A virus replication in human cells (U937, Jurkat, A549); type: cell-based; settings: monocytic U937, T-lymphocytic Jurkat and alveolar type II-like A549 cells, read-out: EC50, inhibition of influenza A virus replication in human cells
[5] = tested on: H3N2 A/Firenze/7/03 (A/FI); type: cell-based, influenza A virus; settings: MDCK cells, 10 μg/ml TIZ
[6] = tested on: influenza B virus, B/Parma/3/04; type: cell-based; settings: B/Parma/3/04 influenza B, MDCK cells, 10 μg/ml TIZ
PR8 virus = type: cell-based, influenza A virus
[7] = target: viral hemagglutinin (HA0) (Influenza A virus, UniProt P03452); type: cell-based
[8] = tested on: viral hemagglutinin (HA0); type: cell-based, influenza A virus
MDCK cells [9] = experiment: Host protein synthesis, eIF2α phosphorylation and Grp78/BiP in MDCK cells; type: cell-based, canine
Description: Metabolic labeling, analysis of protein synthesis and Western Blot Mock-infected or influenza virus-infected cells were labeled with 10 μCi/ml of [35S]-methionine-cysteine ([35S]-Met/Cys, Redivue Pro-Mix 35S in vitro cell-labeling mix; GE Healthcare) for the indicated times after 30 min. starvation in methionine/cysteine-free medium. For pulse/chase experiments, cells were labeled [35S]-Met/Cys (100 μCi/ml) for 15 min., after 30 min. starvation in methionine/cysteine-free medium. At the end of pulse, cells were chased in complete medium containing 10 mM cold methionine and 1 mM cycloheximide for different times in the absence or presence of TIZ. The pulse/chase were terminated by placing the cells on ice. After cell lysis in RIPA buffer (150 mM NaCl, 10 mM Tris-HCl pH 7.5, 4 mM EDTA, 1% Triton X-100, 600 mM KCl), containing 1 mM phenylmethylsulphonyl fluoride (PMSF) and a protease inhibitor cocktail (PIC; Roche Diagnostics GmbH), samples containing the same amount of radioactivity were separated by SDS/PAGE (3% stacking gel, 10% resolving gel) and processed for autoradiography, as described. Autoradiographic patterns were visualized and quantified in Typhoon-8600 Imager (Molecular Dynamics, Amersham Pharmacia Biotech) and images were acquired using ImageQuant software (Amersham Pharmacia Biotech) (MDP analysis).
For Western blot analysis, cells were lysed with cold high-salt extraction (HSB) buffer containing 2 mM dithiothreitol (DTT), 1 mM PMSF, 1 mM orthovanadate, 20 mM β-glycerophosphate, 1 mM p-nitrophenyl phosphate (pNPP) and PIC, or with RIPA buffer, containing 1 mM PMSF and PIC. […] Quantitative evaluation of proteins was determined by Versadoc-1000 analysis using the Quantity One software program, available through BIO-RAD Laboratories.

[10] = tested on: human low-density lipoprotein receptor (LDLR); experiment: Plasma membrane targeting of LDLR in transfected MDCK cells; type: cell-based; settings: LDLR-A18-GFP transfected MDCK cells, TIZ 10 μg/ml for 16 h
Description: For transfection experiments, MDCK cells plated in LabTekII coverglass chambers (Nunch-Thermo Fisher Scientific Inc.) were transiently transfected with green fluorescent protein (GFP)-tagged internalization-defective human low-density lipoprotein receptor (hLDLR) mutant (LDLR-A18-GFP plasmid, kindly provided by E. Rodriguez-Boulan, Cornell University New York, NY), using Lipofectamine 2000 (Invitrogen) according to the manufacturer's instructions.
For detection of plasma membrane targeting of human low-density lipoprotein receptor (hLDLR), MDCK cells plated in coverglass chambers were transiently transfected with GFPtagged internalization-defective hLDLR mutant (LDLR-A18-GFP plasmid) and, after 8 h, treated with TIZ (10 μg/ml) or vehicle for the following 16 h. After blocking protein synthesis with 100 μg/ml cycloheximide (Sigma-Aldrich) for 1 h, plasma membranes were stained using CellMask™ Orange plasma membrane stain (Molecular Probes, Invitrogen). After staining, cells were examined using a Leica DM-IL fluorescence microscope equipped with UV excitation filters. The images were captured with a Leica DC-300 camera using Leica Image-Manager500 software.

Chain of viral hemagglutinin (HA0) (Influenza A virus, UniProt P03452) (P03452 18-565 limits assumed): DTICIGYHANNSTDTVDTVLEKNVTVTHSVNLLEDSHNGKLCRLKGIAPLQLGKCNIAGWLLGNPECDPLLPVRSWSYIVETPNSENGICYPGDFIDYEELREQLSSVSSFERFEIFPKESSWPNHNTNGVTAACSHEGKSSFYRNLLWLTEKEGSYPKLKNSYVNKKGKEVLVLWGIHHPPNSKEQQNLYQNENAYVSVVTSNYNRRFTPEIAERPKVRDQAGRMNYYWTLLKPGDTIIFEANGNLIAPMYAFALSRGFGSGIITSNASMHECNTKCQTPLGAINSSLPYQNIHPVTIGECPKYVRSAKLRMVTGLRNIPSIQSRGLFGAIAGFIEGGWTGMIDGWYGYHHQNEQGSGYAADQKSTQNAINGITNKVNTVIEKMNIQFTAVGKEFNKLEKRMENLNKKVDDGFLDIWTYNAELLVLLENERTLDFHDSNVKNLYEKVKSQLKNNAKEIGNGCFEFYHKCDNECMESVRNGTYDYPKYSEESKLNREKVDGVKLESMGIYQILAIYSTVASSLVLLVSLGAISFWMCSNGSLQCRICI

O=C(Nc1ncc([N+](=O)[O-])s1)c1ccccc1O [Compound 2, tizoxanide]
effect on virus replication under multi- and single-step virus growth (H1N1 A/PR/8/34 (PR8); H1N1 PR8, MDCK cells, 10 μg/ml TIZ, m.o.i. 10 or 0.001 ffu/cell): dramatic block
EC50 (H1N1 A/PR/8/34 (PR8); Influenza A virus, MDCK, 24 h, read-out: EC50, inhibition of virus replication): 1 µg/mL (≈ 3.77 µM)
EC50 (H1N1 A/PR/8/34 (PR8); Influenza A virus, PR8, MDCK cells, read-out: Virus Yield EC50): 1 µg/mL (≈ 3.77 µM)
EC90 (H1N1 A/PR/8/34 (PR8); Influenza A virus, PR8, MDCK cells, read-out: Virus Yield EC90): 9 µg/mL (≈ 33.9 µM)
antiviral activity against PR8, overall rating (H1N1 A/PR/8/34 (PR8); PR8 influenza A virus, Table 1): potent and selective
CC50 [1]: > 50 µg/mL
Toxicity LD50 (MTT) (MDCK cells [2]): >50 µg/mL
EC50 (A/WSN/33 (WSN)): 0.5 µg/mL (≈ 1.89 µM)
EC50 [3]: 0.5 µg/mL (≈ 1.89 µM)
EC50 [4]: 0.3 µg/mL (≈ 1.13 µM)
inhibition of virus replication [5]: very effective
inhibition of virus replication [6]: very effective
effect on influenza virus replication (PR8 virus): had no effect
time after infection for which a single administration inhibits virus replication (PR8 virus; single administration after virus adsorption, 10 μg/ml, PR8, MDCK cells): at least 48 h
effect on virus replication (PR8 virus; treatment of cells only during the adsorption period): did not inhibit virus replication
Endo-H sensitivity of HA0 [7]: remained sensitive to digestion
HA0 glycosylation (glucosamine, mannose incorporation) [7]: did not decrease glucosamine and actually increased mannose incorporation
HA0 trimer formation [7]: did not prevent HA0 ability to form trimers
change in influenza virus protein synthesis pattern (HA0 band) [7]: disappearance of a band of approximately 79 kDa
intracellular HA0 levels / accumulation [7]: did not reduce intracellular HA0 levels
plasma membrane levels of viral hemagglutinin [7]: dramatically decreased
viral proteins in purified virions from supernatant ([8]; PR8-infected cells, 24 h p.i.): could not be detected
HA0 maturation in other host cells and strains ([8]; WSN in A549 cells, A/Ck and PR8 in MDCK cells): able to inhibit HA0 maturation
expression of Grp78/BiP (unfolded protein response marker) (MDCK cells [9]; MDCK cells): did not induce the expression
host protein synthesis (MDCK cells [9]; [35S]-Met/Cys incorporation, 10 μg/ml TIZ): did not inhibit host protein synthesis
phosphorylation of eukaryotic initiation factor 2α (eIF2-α) (MDCK cells [9]; uninfected or PR8-infected cells): did not affect phosphorylation
plasma membrane targeting of LDLR [10]: did not inhibit plasma membrane targeting of LDLR
